Experimental findings from ChEMBL document CHEMBL1134130, “Carbonic anhydrase inhibitors: 4-sulfamoyl-benzenecarboxamides and 4-chloro-3-sulfamoyl-benzenecarboxamides with strong topical antiglaucoma properties” (Bioorg Med Chem Lett, 2001) are described below.

Experiment [1] concerns the target Carbonic anhydrase 2 (Homo sapiens, UniProt P00918).
Description: Binding affinity against human carbonic anhydrase II (hCA -II)
The target in experiment [2] is T1, Carbonic anhydrase 4 (Bos taurus, UniProt Q95323).
T1 sequence (Q95323 whole entry): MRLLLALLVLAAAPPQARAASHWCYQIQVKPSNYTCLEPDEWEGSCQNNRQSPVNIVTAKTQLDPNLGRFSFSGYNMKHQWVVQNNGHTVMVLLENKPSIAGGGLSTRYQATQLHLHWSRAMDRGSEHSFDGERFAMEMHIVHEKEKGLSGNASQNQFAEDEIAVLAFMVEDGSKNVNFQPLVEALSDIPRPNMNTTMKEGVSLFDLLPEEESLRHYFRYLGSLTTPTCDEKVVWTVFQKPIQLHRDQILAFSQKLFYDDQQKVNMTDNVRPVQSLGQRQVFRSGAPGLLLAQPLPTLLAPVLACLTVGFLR
Description: Compound was evaluated for binding affinity against bovine carbonic anhydrase IV (bCA IV)

For experiment [3], the target named is Carbonic anhydrase 1 (Homo sapiens, UniProt P00915).
Chain of Carbonic anhydrase 1 (P00915 whole entry): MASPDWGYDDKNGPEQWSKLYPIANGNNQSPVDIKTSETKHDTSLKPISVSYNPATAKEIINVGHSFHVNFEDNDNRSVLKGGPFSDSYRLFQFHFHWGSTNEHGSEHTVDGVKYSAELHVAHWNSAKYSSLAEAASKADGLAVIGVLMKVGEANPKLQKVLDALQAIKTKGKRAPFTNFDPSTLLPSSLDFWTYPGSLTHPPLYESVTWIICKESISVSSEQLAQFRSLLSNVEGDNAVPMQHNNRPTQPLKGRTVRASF
Description: Binding affinity against human carbonic anhydrase I (hCA I)

By Ki is commonly meant the dissociation constant of the complex between target and ligand, obtained from inhibition or displacement.

With `NS(=O)(=O)c1cc(C(=O)N[C@H](C(=O)O)c2ccccc2)ccc1Cl`, the values for the Ki in experiment [1], in experiment [2] and in experiment [3] were 160 nM, 240 nM and 105 nM, respectively.

On to `NS(=O)(=O)c1ccc(NC(=O)c2ccc(Cl)c(S(N)(=O)=O)c2)cc1`, for which the Ki in experiment [1] was 30 nM; in experiment [2], 66 nM; in experiment [3], 24 nM.

For `NC(=O)C[C@H](NC(=O)c1ccc(Cl)c(S(N)(=O)=O)c1)C(=O)O`, the Ki is 275 nM in experiment [1], 330 nM in experiment [2] and 240 nM in experiment [3].

Take `C[C@H](NC(=O)c1ccc(S(N)(=O)=O)cc1)C(=O)N[C@@H](Cc1ccccc1)C(=O)O`: the Ki in experiment [1] was 12 nM; in experiment [2], 24 nM; in experiment [3], 320 nM.

With `NS(=O)(=O)c1cc(C(=O)NCC(=O)O)ccc1Cl`, the inhibition constant Ki in experiment [1] is 450 nM; in experiment [2], 600 nM; in experiment [3], 210 nM.

Regarding `CC(C)C[C@H](NC(=O)c1ccc(Cl)c(S(N)(=O)=O)c1)C(=O)NCC(=O)O`, the Ki in experiment [1] stood at 51 nM; in experiment [2], 80 nM; in experiment [3], 39 nM.

On to `NC(=O)CC[C@H](NC(=O)c1ccc(S(N)(=O)=O)cc1)C(=O)O`, for which the Ki in experiment [1] came out at 75 nM; in experiment [2], 160 nM; in experiment [3], 425 nM.

For `NS(=O)(=O)c1cc(C(=O)N[C@@H](Cc2ccccc2)C(=O)O)ccc1Cl`, the figures for the Ki in experiment [1], in experiment [2] and in experiment [3] were 250 nM, 340 nM and 135 nM, respectively.

Regarding `NS(=O)(=O)c1cc(C(=O)NCCC(=O)N[C@@H](Cc2cnc[nH]2)C(=O)O)ccc1Cl`, the Ki in experiment [1] came to 36 nM; in experiment [2], 50 nM; in experiment [3] it was 30 nM.

Regarding `NS(=O)(=O)c1ccc(C(=O)N[C@@H](Cc2cnc[nH]2)C(=O)O)cc1`, the Ki in experiment [1] turned out to be 40 nM; in experiment [2] it was 125 nM; in experiment [3], 270 nM.

Consider `CSCC[C@H](NC(=O)c1ccc(S(N)(=O)=O)cc1)C(=O)O`, for which the results for the Ki in experiment [1], in experiment [2] and in experiment [3] were 66 nM, 150 nM and 400 nM, respectively.

As for `CC[C@H](C)[C@H](NC(=O)c1ccc(Cl)c(S(N)(=O)=O)c1)C(=O)O`, the Ki in experiment [1] is 280 nM; in experiment [2], 360 nM; in experiment [3] it was 150 nM.

Regarding `NS(=O)(=O)c1ccc(C(=O)N[C@@H](Cc2ccc(O)cc2)C(=O)O)cc1`, the Ki came out at 45 nM in experiment [1], 120 nM in experiment [2] and 535 nM in experiment [3].

With `NS(=O)(=O)c1ccc(C(=O)NCCCC(=O)O)cc1`, the Ki in experiment [1] amounted to 73 nM; in experiment [2] it was 120 nM; in experiment [3], 415 nM.

Consider `NS(=O)(=O)c1ccc(C(=O)NCC(=O)NCC(=O)O)cc1`, for which the Ki in experiment [1] is 42 nM; in experiment [2] it was 50 nM; in experiment [3] it was 350 nM.

Consider `NS(=O)(=O)c1cc(C(=O)N[C@H](C(=O)O)C(O)c2ccccc2)ccc1Cl` (stereo partly specified), for which the Ki in experiment [1] was found to be 62 nM; in experiment [2] it was 98 nM; in experiment [3], 37 nM.

In the case of `NS(=O)(=O)c1ccc(C(=O)Nc2nnc(S(N)(=O)=O)s2)cc1`, the results for the Ki in experiment [1], in experiment [2] and in experiment [3] were 3 nM, 15 nM and 35 nM, respectively.

In the case of `NS(=O)(=O)c1cc(C(=O)NCCC(=O)O)ccc1Cl`, the Ki in experiment [1] was determined as 450 nM; in experiment [2], 610 nM; in experiment [3], 205 nM.

Consider `NS(=O)(=O)c1cc(C(=O)N[C@@H](CCC(=O)O)C(=O)O)ccc1Cl`, for which the Ki was found to be 340 nM in experiment [1], 400 nM in experiment [2] and 305 nM in experiment [3].

As to `CC(C)C[C@H](NC(=O)c1ccc(S(N)(=O)=O)cc1)C(=O)O`, the Ki in experiment [1] came to 53 nM; in experiment [2] it was 90 nM; in experiment [3], 405 nM.

Take `NS(=O)(=O)c1ccc(C(=O)NC(C(=O)O)c2ccccc2)cc1` (stereo unspecified): the values for the Ki in experiment [1], in experiment [2] and in experiment [3] were 36 nM, 75 nM and 250 nM, respectively.

As for `NS(=O)(=O)c1ccc(C(=O)NC(Cc2ccc(O)c(O)c2)C(=O)O)cc1` (stereo unspecified), the Ki in experiment [1] is 43 nM; in experiment [2] it was 105 nM; in experiment [3], 520 nM.

Regarding `NS(=O)(=O)c1cc(C(=O)N[C@@H](Cc2c[nH]cn2)C(=O)NCC(=O)O)ccc1Cl`, the Ki in experiment [1] came out at 50 nM; in experiment [2], 73 nM; in experiment [3] it was 41 nM.

As for `NC(=O)CC[C@H](NC(=O)c1ccc(Cl)c(S(N)(=O)=O)c1)C(=O)O`, the Ki in experiment [1] was 305 nM; in experiment [2], 410 nM; in experiment [3], 250 nM.

With `NS(=O)(=O)c1ccc(CNC(=O)c2ccc(Cl)c(S(N)(=O)=O)c2)cc1`, the inhibition constant (Ki) worked out at 28 nM in experiment [1], 61 nM in experiment [2] and 24 nM in experiment [3].

`C[C@H](NC(=O)c1ccc(S(N)(=O)=O)cc1)C(=O)O`: the Ki is 79 nM in experiment [1], 75 nM in experiment [2] and 425 nM in experiment [3].

As for `NS(=O)(=O)c1ccc(C(=O)N[C@@H](CS)C(=O)O)cc1`, the results for the Ki in experiment [1], in experiment [2] and in experiment [3] were 110 nM, 230 nM and 450 nM, respectively.

In the case of `NS(=O)(=O)c1ccc(C(=O)NCCC(=O)N[C@@H](Cc2c[nH]cn2)C(=O)O)cc1`, the figures for the Ki in experiment [1], in experiment [2] and in experiment [3] were 16 nM, 21 nM and 270 nM, respectively.

Regarding `NS(=O)(=O)c1cc(C(=O)N[C@@H](CC(=O)O)C(=O)O)ccc1Cl`, the figures for the Ki in experiment [1], in experiment [2] and in experiment [3] were 300 nM, 355 nM and 285 nM, respectively.

With `NS(=O)(=O)c1ccc(C(=O)N[C@@H](CCC(=O)O)C(=O)O)cc1`, the inhibition constant Ki was 74 nM in experiment [1], 160 nM in experiment [2] and 430 nM in experiment [3].

Regarding `NS(=O)(=O)c1ccc(C(=O)N[C@@H](CC(=O)O)C(=O)O)cc1`, the Ki in experiment [1] was found to be 73 nM; in experiment [2], 150 nM; in experiment [3], 425 nM.

For `C[C@@H](O)[C@H](NC(=O)c1ccc(Cl)c(S(N)(=O)=O)c1)C(=O)O`, the Ki was found to be 520 nM in experiment [1], 735 nM in experiment [2] and 320 nM in experiment [3].

Turning to `NC(=O)C[C@H](NC(=O)c1ccc(S(N)(=O)=O)cc1)C(=O)O`, the results for the Ki in experiment [1], in experiment [2] and in experiment [3] were 72 nM, 155 nM and 410 nM, respectively.

For `CSCC[C@H](NC(=O)c1ccc(Cl)c(S(N)(=O)=O)c1)C(=O)O`, the figures for the Ki in experiment [1], in experiment [2] and in experiment [3] were 410 nM, 650 nM and 240 nM, respectively.

On to `NS(=O)(=O)c1cc(C(=O)N[C@@H](CO)C(=O)O)ccc1Cl`, for which the Ki is 290 nM in experiment [1], 395 nM in experiment [2] and 170 nM in experiment [3].

In the case of `NS(=O)(=O)c1cc(C(=O)NCCCC(=O)O)ccc1Cl`, the inhibition constant Ki in experiment [1] was found to be 400 nM; in experiment [2] it was 540 nM; in experiment [3], 200 nM.

With `NS(=O)(=O)c1cc(C(=O)NCC(=O)NCC(=O)O)ccc1Cl`, the Ki was found to be 85 nM in experiment [1], 170 nM in experiment [2] and 69 nM in experiment [3].

In the case of `NS(=O)(=O)c1cc(C(=O)NC(Cc2ccc(O)c(O)c2)C(=O)O)ccc1Cl` (stereo unspecified), the figures for the Ki in experiment [1], in experiment [2] and in experiment [3] were 240 nM, 330 nM and 100 nM, respectively.

For the compound `NS(=O)(=O)c1ccc(CNC(=O)c2ccc(S(N)(=O)=O)cc2)cc1`, the Ki in experiment [1] was 7 nM; in experiment [2], 16 nM; in experiment [3] it was 40 nM.

For `NS(=O)(=O)c1cc(C(=O)N[C@@H](CS)C(=O)O)ccc1Cl`, the Ki in experiment [1] amounted to 490 nM; in experiment [2], 720 nM; in experiment [3], 300 nM.

In the case of `CC(C)[C@H](NC(=O)c1ccc(Cl)c(S(N)(=O)=O)c1)C(=O)O`, the Ki is 330 nM in experiment [1], 360 nM in experiment [2] and 130 nM in experiment [3].

As to `CC(C)[C@H](NC(=O)c1ccc(S(N)(=O)=O)cc1)C(=O)O`, the Ki in experiment [1] turned out to be 74 nM; in experiment [2], 150 nM; in experiment [3], 420 nM.

As to `NS(=O)(=O)c1ccc(C(=O)N[C@H](C(=O)O)C(O)c2ccccc2)cc1` (stereo partly specified), the Ki in experiment [1] was 21 nM; in experiment [2], 62 nM; in experiment [3] it was 54 nM.

In the case of `C[C@H](NC(=O)c1ccc(Cl)c(S(N)(=O)=O)c1)C(=O)O`, the Ki in experiment [1] is 420 nM; in experiment [2] it was 475 nM; in experiment [3], 175 nM.

`CC(C)C[C@H](NC(=O)c1ccc(Cl)c(S(N)(=O)=O)c1)C(=O)O`: the Ki in experiment [1] came out at 305 nM; in experiment [2] it was 330 nM; in experiment [3] it was 125 nM.

With `NS(=O)(=O)c1ccc(C(=O)N[C@@H](Cc2c[nH]cn2)C(=O)NCC(=O)O)cc1`, the Ki in experiment [1] worked out at 10 nM; in experiment [2] it was 19 nM; in experiment [3] it was 380 nM.

Consider `C[C@H](NC(=O)c1ccc(Cl)c(S(N)(=O)=O)c1)C(=O)N[C@@H](Cc1ccccc1)C(=O)O`, for which the Ki in experiment [1] was found to be 44 nM; in experiment [2] it was 72 nM; in experiment [3] it was 36 nM.

For the compound `NS(=O)(=O)c1cc(C(=O)N[C@@H](Cc2c[nH]cn2)C(=O)N[C@@H](Cc2ccccc2)C(=O)O)ccc1Cl`, the inhibitory constant (Ki) in experiment [1] turned out to be 38 nM; in experiment [2], 45 nM; in experiment [3], 27 nM.

`NS(=O)(=O)c1ccc(C(=O)N[C@@H](CO)C(=O)O)cc1`: the figures for the Ki in experiment [1], in experiment [2] and in experiment [3] were 120 nM, 325 nM and 440 nM, respectively.

For `NS(=O)(=O)c1cc(C(=O)Nc2nnc(S)s2)ccc1Cl`, the values for the Ki in experiment [1], in experiment [2] and in experiment [3] were 11 nM, 21 nM and 15 nM, respectively.

As to `NS(=O)(=O)c1ccc(CCNC(=O)c2ccc(Cl)c(S(N)(=O)=O)c2)cc1`, the Ki in experiment [1] turned out to be 26 nM; in experiment [2], 63 nM; in experiment [3] it was 21 nM.

`NS(=O)(=O)c1ccc(C(=O)N[C@@H](Cc2ccccc2)C(=O)O)cc1`: the Ki in experiment [1] was 52 nM; in experiment [2], 130 nM; in experiment [3], 560 nM.
